Experimental data reported in patent US20220380430A1, “Non-Transgenic Functional Rescue of Neuropeptides” (Worcester Polytechnic Institute, priority 2021, published 2022).
“Also recorded” adds a separate entry of the source. No end group written: not given here.

Tests used:
[1] = target: T1, NPR-10B (Caenorhabditis elegans, UniProt Q6EUU1); assay: In vitro GPCR activation assay (CHO-K1 cells, aequorin, human Gα16), NPR-10B; type: cell-based, C. elegans; details: for EC50: title: NPR-10B, calcium/aequorin luminescence in transfected CHO-K1 cells; for activation of NPR-10 (NPR-10B): in words
T1 sequence (Q6EUU1 1-362): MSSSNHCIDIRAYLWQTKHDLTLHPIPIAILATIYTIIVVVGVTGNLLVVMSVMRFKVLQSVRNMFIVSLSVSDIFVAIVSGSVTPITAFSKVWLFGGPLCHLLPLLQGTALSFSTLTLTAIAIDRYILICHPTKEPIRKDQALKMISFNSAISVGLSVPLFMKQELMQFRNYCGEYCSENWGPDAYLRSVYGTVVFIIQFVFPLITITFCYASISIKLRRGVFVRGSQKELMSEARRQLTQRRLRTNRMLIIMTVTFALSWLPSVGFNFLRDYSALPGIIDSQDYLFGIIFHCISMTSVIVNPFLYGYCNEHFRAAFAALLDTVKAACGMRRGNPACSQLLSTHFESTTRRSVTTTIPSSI
Procedure: Using Chinese hamster ovarian (CHO) cell cultures stably expressing the promiscuous G protein, Gα16, and the calcium reporter, aequorin, it was observed that both isoforms of NPR-10 are activated by seven of the ten FLP-3 peptides, with half-maximal effective concentrations (EC50) in the nM range (FIG. 14A-FIG. 14H, Table V). […] This peptide contains an R-to-K mutation within the C-terminal motif, which may explain the lack of receptor activation.
(§1) The GPCR activation assay was performed as previously described Van Sinay, E. et al. Proc. Natl Acad. Sci. USA 114, E4065-e4074 (2017) and Peymen, K. et al. PLoS Genet. 15, e1007945 (2019). Briefly, npr-10 and frpr-16 cDNAs were cloned into the pcDNA3.1 TOPO expression vector (Thermo Fisher Scientific). A CHO-K1 cell line (PerkinElmer, ES-000-A24) stably expressing apo-aequorin targeted to the mitochondria (mtAEQ) and human Gα16 was transiently transfected with the receptor cDNA construct or the empty pcDNA3.1 vector using Lipofectamine LTX and Plus reagent (Thermo Fisher Scientific). Cells were shifted to 28° C. one day later and allowed to incubate for 24 h. On the day of the assay, cells were collected in BSA medium (DMEM/Ham's F12 with 15 mM HEPES, without phenol red, 0.1% BSA) and loaded with […] coelenterazine h (Thermo Fisher Scientific) for 4 h at room temperature. The incubated cells were then added to synthetic peptides dissolved in DMEM/BSA, and luminescence was measured for 30 s at […] using a Mithras LB940 (Berthold Technologies) or MicroBeta LumiJet luminometer (PerkinElmer). After 30 s of readout, 0.1% triton X-100 was added to lyse the cells, resulting in a maximal calcium response that was measured for 10 s. After initial screening, concentration-response curves were constructed for HPLC-purified FLP-3 peptides by subjecting the transfected cells to each peptide in a concentration range from 1 pM to 10 μM. Cells transfected with an empty vector were used as a negative control. Assays were performed in triplicate on at least two independent days. Concentration-response curves were fitted using Prism v. 7 (nonlinear regression analysis with a sigmoidal concentration-response equation).

[2] = test system: flp-3 lof males; assay: Drop avoidance assay to ascr #8 after FLP-3 peptide rescue-by-feeding; type: in vivo, C. elegans; details: flp-3 lof males raised on peptide; 1 μM ascr #8; in words
Procedure: To identify which FLP-3 peptides are required for male avoidance of ascr #8, a peptide feeding approach https://www.nature.com/articles/s42003-021-02547-7-ref-CR59 was adopted, similar to RNAi feeding (FIG. 16A). Using Gateway Cloning technology, FLP-3 peptide coding sequences were inserted into a bacterial expression vector. As a control, first the FLP-3 peptides were tested that are still encoded in the ok3625 allele which are insufficient to drive the proper ascr #8 response in vivo: FLP-3-1 (SPLGTMRFamide) (SEQ ID NO: 10) and FLP-3-4 (NPLGTMRFamide) (SEQ ID NO: 11). Then flp-3 lof animals were reared on lawns of bacteria expressing the rescue constructs, and their progeny were assayed for avoidance (FIG. 16B-FIG. 16D).
Assays were performed as described previously in Chute, C. D. & Srinivasan, J. Semin. Cell Dev. Biol. 33, 18-24 (2014); Chute, C. D. et al. Nat. Commun. 10, 3186 (2019); and Hilliard, M. A. et al., EMBO J. 23, 1101-1111 (2004). Fifty to sixty L4 worms were segregated by sex and stored at 20° C. for 5 h to overnight to be assayed as young adults. One to four hours prior to the assay, the lids of unseeded plates were tilted to allow any excess moisture to evaporate off the plates. At the time of the assay, 10 or more animals were transferred onto each of the dried, unseeded plates. A drop of either water or 1 μM ascr #8 was placed on the tail of forward moving animals, and their response was scored as either an avoidance response, or no response. The total number of avoidances was divided by the total number of drops to generate an avoidance index for that plate. This was repeated for at least 10 plates over at least three different days.
SCRAMBLE control or FLP-3 peptide constructs were grown overnight in LB media containing […] ampicillin at 37° C. and diluted to an OD600 of 1.0 prior to seeding on NGM plates containing […] ampicillin and 1 mM IPTG. The 75 μL lawn was left to dry and grow overnight at room temperature before three L4 animals were placed on the plates. Males were selected for testing in the same manner as described above but were isolated onto plates also seeded with the same peptide on which they had been reared. Animals were then assayed using either the avoidance assay or single worm assay.

[3] = target: T2, FRPR-16 (Caenorhabditis elegans, UniProt Q21957); assay: In vitro GPCR activation assay (CHO-K1 cells, aequorin, human Gα16), FRPR-16; type: cell-based, C. elegans; details: for EC50: calcium/aequorin luminescence in transfected CHO-K1 cells; for activation of FRPR-16: in words
T2 sequence (Q21957 1-340): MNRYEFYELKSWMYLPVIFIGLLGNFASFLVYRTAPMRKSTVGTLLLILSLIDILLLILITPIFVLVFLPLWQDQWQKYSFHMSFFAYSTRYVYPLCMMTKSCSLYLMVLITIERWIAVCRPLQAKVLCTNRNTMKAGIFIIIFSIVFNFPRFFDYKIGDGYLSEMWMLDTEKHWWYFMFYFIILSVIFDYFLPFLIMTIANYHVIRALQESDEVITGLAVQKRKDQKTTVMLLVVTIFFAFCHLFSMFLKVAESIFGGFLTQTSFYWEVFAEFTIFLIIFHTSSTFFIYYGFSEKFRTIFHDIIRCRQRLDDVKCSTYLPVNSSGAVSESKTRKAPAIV
Procedure: as §1

[4] = test system: him-5 and pdf-1 males; assay: Excursion (food-leaving) assay after rescue-by-feeding; type: in vivo, C. elegans; details: for PL (confidence interval): Probability of Leaving per hour, beyond 35 mm from food
From the text: We quantified the behavioral activity of pdf-1 lof males using a food-leaving behavior as previously described. Individuals were placed on a small food spot, and track patterns were scored at three different time points (2, 6, 24 hrs) (FIG. 4A). “Never left food” indicate the absence of tracks outside the food spot. […] “Major excursion” indicates the presence of tracks past the 1 cm boundary (FIG. 1B, Excursion Assay). The food-leaving behavior was quantified as a measure of mate-searching behavior. In this behavior well-fed males left food in search of mates and the data is represented as a Probability of Leaving (PL) (FIG. 7A).
The mate searching behavior of pdf-1 mutants was quantified in a food leaving assay. him-5 animals were used as wild-type control to ensure the presence of males. him-5 and pdf-1 animals were fed OP50, scramble peptide, PDF-1A, PDF-1B, or a 1:1 mixture of PDF-1A and PDF-1B cultures. Four to six larval L4 hermaphrodites were passed onto an NGM plate containing […] AMP and 1 mM IPTG with 75 μL of peptide. These worms were grown at 20° C. for about 4 days until the male progeny of the initial L4 worms were young adults. The day prior to the assay, young adult male pdf-1 or him-5 worms were singled onto 60 mm plates containing lawns of either OP50 (NGM plates) or appropriate peptide cultures (NGM containing […] AMP and 1 mM IPTG). To determine the mate searching effects of pdf-1, we performed a food-leaving assay as described previously in Barrios, A., et al., Nat Neurosci 15, 1675-1682 (2012); Lipton, J., et al., The Journal of neuroscience: the official journal of the Society for Neuroscience 24, 7427-7434 (2004); Ryan, D. A. et al. Curr Biol 24, 2509-2517 (2014), with modifications. In this assay, individuals were placed on a small food spot, and track patterns were scored at the indicated times. Assay plates were prepared one day prior to assaying on 100 mm plates with 10 mL of Leaving Assay media (25 mM KPO4 (pH 6.0), 1 mM MgSO4, 1 mM CaCl2), 50 mM NaCl, 2.5 g/L Peptone, 17 g/L Agar). On center of plate, 7 μL of OP50 was added. Plates were lightly covered and stored at room temperature overnight (˜20° C., <40% humidity).
On the day of the assay, a single male was plated on the assay plate and placed in a dark, 20° C. incubator. At 2, 6, and 24 hours after the worms are plated, plates were scored for male worm tracks. Scored were separated into binned ranges. “Never left food” indicates the absence of tracks outside the food spot. […] “Major excursion” indicates the presence of tracks past the 1 cm boundary. The food leaving behavior was quantified at three different time points (2, 6, and 24 hours). (FIG. 4A, FIG. 7A, Table IV).
The mate searching defect of pdf-1 was quantified as a Probability of Leaving per hour (PL) (FIG. 4B, FIG. 7B).
The assay was performed across at least two days per condition, with at least n=50, wherein each assay plate with one male is equal to n=1. In all experiments, the investigators were blinded to genotype. Worm in the >35 mm from the center of food bin were scored as “leavers”. The probability of leaving per hour (Probability of Leaving (PL)) was calculated using an R script developed in Barrios et al., with assistance by (Personal Communications to Barrios, 2020). PL was calculated by the “hazard obtained by fitting an exponential parametric survival model to the censored data using maximum likelihood” (Table IV). The PLh-1 values for all pdf-1 animals fed scramble or peptide rescue were compared to him-5 worms fed scramble using an ANOVA followed by Bonferroni's multiple comparison (FIG. 4B, FIG. 7C).

Row | Substance | EC50 [1] [nM] | rescue of avoidance phenotype to ascr #8 (Avoidance Index) [2] | EC50 [3] [nM] | other results
1 | SPLGTMRF-NH2 [FLP-3-1, SPLGTMRFamide] | 262 | unable to rescue the avoidance phenotype on their own | 7.4 | 
2 | EDGNAPFGTMKFamide (EDGNAPFGTMKF-NH2) [FLP-3-6] |  |  |  | activation of NPR-10 (NPR-10B) [1]: did not activate NPR-10; also recorded: did not activate either receptor; activation of FRPR-16 [3]: did not activate FRPR-16; also recorded: did not activate either receptor
3 | ASEDALFGTMRF-NH2 [FLP-3-5, ASEDALFGTMRFamide] | 1100 |  | 72.1 | 
4 | EAEEPLGTMRF-NH2 [FLP-3-3, EAEEPLGTMRFamide] | 867 |  | 288 | 
5 | SAEPFGTMRF-NH2 [FLP-3-7, SAEPFGTMRFamide] | 439 |  | 39.5 | 
6 | SNAELINGLIGMDLGKLSAVG-NH2 [PDF-1A] |  |  |  | PL (confidence interval) ([4]; him-5 males): 0.06979 (0.05892, 0.08269); PL (confidence interval) ([4]; pdf-1 males): 0.03287 (0.02657, 0.04224)
7 | SNAELINGLLSMNLNKLSGAG-NH2 [PDF-1B] |  |  |  | PL (confidence interval) ([4]; him-5 males): 0.08712 (0.0754, 0.1007); Probability of Leaving, comparison in words ([4]; pdf-1 lof males fed peptide): significantly different PL from pdf-1 males fed PDF-1A alone; rescue of food-leaving behavior (percent of males leaving food) ([4]; pdf-1 lof males, 2, 6, 24 hrs): complete rescue of food-leaving behavior; PL (confidence interval) ([4]; pdf-1 males): 0.05821 (0.04761, 0.07118)
8 | NPLGTMRF-NH2 [FLP-3-4, NPLGTMRFamide] | 427 | unable to rescue the avoidance phenotype on their own | 10.7 | 
9 | STVDSSEPVIRDQ [FLP-3-10] |  | unable to rescue the avoidance phenotype |  | activation of NPR-10 (NPR-10B) [1]: failed to activate the receptor; also recorded: did not activate either receptor; activation of FRPR-16 [3]: did not activate FRPR-16; also recorded: did not activate either receptor
